The values below come from US5776718A, “Reversible protease inhibitors” (Arris Pharmaceutical Corporation, priority 1996, dated 1998).

For one test, the target named is cruzain (Trypanosoma cruzi, UniProt P25779). Nature of the test: Inhibition of cruzain (conditions as for cathepsin L). The test is classed as biochemical, T. cruzi. As for the experimental part:
(§1) Conditions for cathepsin L: 50 mM acetate, pH 5.5, 2.5 mM EDTA, 2.5 mM DTT. substrate: [Z-Phe-Arg-AMC]=[…] (Km=2 mM). The assay at 25^0 was started by the addition of cat L (final concentration approx 1 nM) and the increase in fluorescence at 450 nm with excitation at 380 nm was followed over 2 min. The depression in the rate of substrate hydrolysis following addition of varying concentrations of inhibitors was noted. The assay was linear throughout the range observed. Duplicate runs were measured.
Conditions for cruzain were the same as for cathepsin L with the exception that the Km for the substrate was 1 mM.
(§2) The respective Ki values were estimated by using the Dixon plot as described by Irwin Segel in Enzyme Kinetics: Behavior and analysis of rapid equilibrium and steady-state enzyme systems, 1975, Wiley-lnterscience Publication, John Wiley & Sons, New York.

The next test deals with cathepsin L (Homo sapiens, UniProt P07711). Nature of the test: Inhibition of cathepsin L, fluorogenic substrate Z-Phe-Arg-AMC. Format: biochemical. As for the experimental part:
as §1, §2

In the next test the target is cathepsin B (Homo sapiens, UniProt P07858). The test is described as follows: Inhibition of cathepsin B, fluorogenic substrate Z-Arg-Arg-AMC. The test is classed as biochemical. As for the experimental part: The assay at 250 was started by the addition of cat B (final concentration approx 10 nM) and the increase in fluorescence at 450 nm with excitation at 380 nm was followed over 2 min. The depression in the rate of substrate hydrolysis following addition of varying concentrations of inhibitors was noted. The assay was linear throughout the range observed. Duplicate runs were measured.
as §2

In the next test the target is cathepsin S (Homo sapiens, UniProt P25774). The test is described as follows: Inhibition of cathepsin S, fluorogenic substrate Z-Val-Val-Arg-AMC. Particulars: 50 mM phosphate, pH 6.5, 2.5 mM EDTA, 2.5 mM DTT; Dixon plot. The test is classed as biochemical. On the procedure: The assay at 250 was started by the addition of cat S (final concentration approx […]) and the increase in fluorescence at 450 nm with excitation at 380 nm was followed over 2 min. The depression in the rate of substrate hydrolysis following addition of varying concentrations of inhibitors was noted. The assay was linear throughout the range observed. Duplicate runs were measured.
Sequence of cathepsin S (P25774 115-331, species assumed): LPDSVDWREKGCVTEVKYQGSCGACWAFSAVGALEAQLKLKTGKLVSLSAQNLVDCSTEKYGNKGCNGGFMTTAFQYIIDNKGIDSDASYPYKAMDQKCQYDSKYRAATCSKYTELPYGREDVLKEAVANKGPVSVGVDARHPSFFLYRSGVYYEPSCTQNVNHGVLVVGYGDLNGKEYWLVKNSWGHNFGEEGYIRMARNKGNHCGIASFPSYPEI
as §2

The mark [1] stands for this setting: 50 mM acetate, pH 5.5, 2.5 mM EDTA, 2.5 mM DTT, Km 1 mM, Dixon plot, read-out: cruzain (Ki μM).
The mark [2] stands for this setting: 50 mM acetate, pH 5.5, 2.5 mM EDTA, 2.5 mM DTT, Dixon plot, read-out: cathepsin L (Ki μM).
Where [3] appears, read: 50 mM phosphate, pH 6.0, 2.5 mM EDTA, 2.5 mM DTT, Dixon plot, read-out: cathepsin B (Ki μM).

Molecules are shown by their SMILES. Like-named read-outs stand apart in the source and are kept apart here.

Sequence of cathepsin L (P07711 114-333, species assumed): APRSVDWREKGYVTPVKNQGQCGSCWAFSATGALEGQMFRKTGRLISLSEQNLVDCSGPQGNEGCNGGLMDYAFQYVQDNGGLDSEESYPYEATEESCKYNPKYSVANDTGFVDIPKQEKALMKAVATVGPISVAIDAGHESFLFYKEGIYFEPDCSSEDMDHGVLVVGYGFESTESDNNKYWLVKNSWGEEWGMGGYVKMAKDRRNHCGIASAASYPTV
Sequence of cruzain (P25779 123-467): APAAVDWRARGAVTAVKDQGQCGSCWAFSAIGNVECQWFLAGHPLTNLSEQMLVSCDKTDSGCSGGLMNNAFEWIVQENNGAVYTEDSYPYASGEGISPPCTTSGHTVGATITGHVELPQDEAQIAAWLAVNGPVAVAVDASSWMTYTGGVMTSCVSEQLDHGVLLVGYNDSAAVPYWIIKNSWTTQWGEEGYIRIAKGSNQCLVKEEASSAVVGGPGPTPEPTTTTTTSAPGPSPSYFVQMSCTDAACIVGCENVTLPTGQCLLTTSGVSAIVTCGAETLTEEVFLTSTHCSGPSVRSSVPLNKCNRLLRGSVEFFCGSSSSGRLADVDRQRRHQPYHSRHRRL

As for `COC(=O)CCC(=O)N[C@@H](Cc1ccccc1)C(=O)N[C@@H](CCc1ccccc1)CCS(=O)(=O)c1ccccc1` [MeOSuc--Phe--HphγSO2 Ph, methyl 3-{2-phenyl-1S-[3-phenyl-1S-(2-phenylsulfonylethyl)propylcarbamoyl]ethylcarbamoyl}propionate], the Ki was determined as 4.7 µM on cruzain (setting [1]), 3.2 µM at cathepsin L (setting [2]) and 81 µM at cathepsin B (setting [3]).
On to `CC(C)C[C@H](NC(=O)N1CCOCC1)C(=O)NC(CCc1ccccc1)S(=O)(=O)Cc1ccccc1` (stereo partly drawn) [Mu--Leu--HphαSO2 Bzl, N^2-(4-morpholinylcarbonyl)-N^1-(3-phenyl-1-benzylsulfonylpropyl)-L-leucinamide], for which the inhibition constant (Ki) on cruzain (setting [1]) was 0.76 µM; on cathepsin L (setting [2]), 0.6 µM; on cathepsin B (setting [3]), 54 µM; at cathepsin S, 4.2 µM.
As for `O=C(N[C@@H](CCc1ccccc1)CCS(=O)(=O)c1ccc2ccccc2c1)[C@H](Cc1ccc2ccccc2c1)NC(=O)N1CCOCC1` [Mu--Np2-HphγSO2 Np, N^2-(4-morpholinylcarbonyl)-N^1 -{3-phenyl-1S-[2-(2-naphthylsulfonyl)ethyl]propyl}-β-(2-naphthyl)-L-alaninamide], the Ki on cruzain (setting [1]) was found to be 0.1 µM; on cathepsin L (setting [2]) it was 0.26 µM; on cathepsin B (setting [3]), 20 µM.
Regarding `O=C(NC(CCc1ccccc1)S(=O)(=O)c1ccccc1)[C@H](Cc1ccccc1)NC(=O)N1CCOCC1` (stereo partly drawn) [Mu--Phe--(DL)HphαSO2 Ph,], on cathepsin S, the inhibitory constant (Ki) was 3.7 µM.
For the compound `Nc1ccc(CC[C@H](CCc2ccccc2)NC(=O)[C@H](Cc2ccccc2)NC(=O)N2CCOCC2)cc1` [Mu--Phe--Hph--γPh--NH2, N^2-(4-morpholinylcarbonyl)-N^1 -{3-phenyl-1S-[2-(4-aminophenyl)ethyl]propyl}-L-phenylalaninamide], the Ki at cruzain (setting [1]) came out at 3 µM; on cathepsin L (setting [2]), 2.9 µM.
For `COc1ccc(CC[C@H](CCc2ccccc2)NC(=O)[C@H](Cc2ccccc2)NC(=O)N2CCOCC2)cc1` [Mu--Phe--Hph-γPh--OMe, N^2-(4-morpholinylcarbonyl)-N^1 -{3-phenyl-1S-[2-(4-methoxyphenyl)ethyl]propyl}-L-phenylalaninamide], the values for the Ki on cruzain (setting [1]), on cathepsin L (setting [2]) and on cathepsin B (setting [3]) were 0.89 µM, 0.94 µM and 4.8 µM, respectively.
Taken in the same sequence, the figures for `O=C(NC(CCc1ccccc1)S(=O)(=O)Cc1ccccc1)[C@H](Cc1ccccc1)NC(=O)N1CCOCC1` (stereo partly drawn) [Mu--Phe--HphαSO2 Bzl, N^2-(4-morpholinylcarbonyl)-N^1-(3-phenyl-1-benzylsulfonylpropyl)-L-phenylalaninamide] were 0.92 µM, 1.2 µM and 77 µM.
For the compound `O=C(NC(CCc1ccccc1)S(=O)(=O)C(F)(F)F)[C@H](Cc1ccccc1)NC(=O)N1CCOCC1` (stereo partly drawn) [Mu--Phe--HphαSO2 CR3, N^2-(4-morpholinylcarbonyl)-N^1-(3-phenyl-1-trifluoromethylsulfonylpropyl)-L-phenylalaninamide], the Ki at cruzain (setting [1]) worked out at 0.23 µM; at cathepsin L (setting [2]), 0.18 µM; on cathepsin B (setting [3]) it was 50 µM.
As to `O=C(N[C@@H](CCc1ccccc1)S(=O)(=O)c1ccccc1)[C@H](Cc1ccccc1)NC(=O)N1CCOCC1` [Mu--Phe--HphαSO2 Ph], at cathepsin S, the Ki is 2.6 µM.
`O=C(N[C@@H](CCc1ccccc1)CS(=O)(=O)c1ccccc1)[C@H](Cc1ccccc1)NC(=O)N1CCOCC1` [Mu--Phe--HphβSO2 Ph, N^1-(4-morpholinylcarbonyl)-N^1-(3-phenyl-1S-phenylsulfonylmethylpropyl)-L-phenylalaniamide]: the Ki at cruzain (setting [1]) amounted to 5.7 µM; at cathepsin L (setting [2]), 29 µM; on cathepsin B (setting [3]) it was 1100 µM.
Taken in the same sequence, the figures for `CCOC(=O)CC[C@H](CCc1ccccc1)NC(=O)[C@H](Cc1ccccc1)NC(=O)N1CCOCC1` [Mu--Phe--HphγCO2 Et, ethyl 4S-[N-(4-morpholinylcarbonyl)-L-phenylalanylamino]-6-phenylhexanoate] were 0.91 µM, 0.48 µM and 1.6 µM.
In the case of `O=C(CC[C@H](CCc1ccccc1)NC(=O)[C@H](Cc1ccccc1)NC(=O)N1CCOCC1)NCc1ccccc1` [Mu--Phe--HphγCONHBzl, N^2-(4-morpholinylcarbonyl)-N^1-[3-phenyl-1S-(2-benzylcarbamoylethyl)propyl]-L-phenylalaninamide], the results for the Ki on cruzain (setting [1]) and at cathepsin L (setting [2]) were 7.7 µM and 19 µM, respectively.
In the case of `O=C(CC[C@H](CCc1ccccc1)NC(=O)[C@H](Cc1ccccc1)NC(=O)N1CCOCC1)Nc1ccccc1` [Mu--Phe--HphγCONHPh, N^2-(4-morpholinylcarbonyl)-N^1-[3-phenyl-1S-(2-phenylcarbamoylethyl)propyl]-L-phenylalaninamide], the inhibitory constant (Ki) at cruzain (setting [1]) was determined as 0.13 µM; on cathepsin L (setting [2]), 2 µM; at cathepsin B (setting [3]) it was 2.6 µM.
As to `CCOP(=O)(CC[C@H](CCc1ccccc1)NC(=O)[C@H](Cc1ccccc1)NC(=O)N1CCOCC1)OCC` [Mu--Phe--HphγPO(O2 Et)2], the Ki is 15 µM on cruzain, 3 µM at cathepsin L and 17 µM on cathepsin B.
With `O=C(N[C@@H](CCc1ccccc1)CCS(=O)(=O)CCc1ccccc1)[C@H](Cc1ccccc1)NC(=O)N1CCOCC1` [Mu--Phe--HphγSO2 EtPh, N^2-(4-morpholinylcarbonyl)-N^1 -{3-phenyl-1S-[2-(2-phenylethylsulfonyl)ethyl]propyl}-L-phenylalaninamide], the Ki at cruzain (setting [1]) stood at 5.9 µM; on cathepsin L (setting [2]) it was 0.17 µM.
With `O=C(N[C@@H](CCc1ccccc1)CCS(=O)(=O)c1ccccc1)[C@H](Cc1ccccc1)NC(=O)N1CCOCC1` [Mu--Phe--HphγSO2 Ph, N^2-(4-morpholinylcarbonyl)-N^1-[3-phenyl-1S-(2-phenylsulfonylethyl)propyl]-L-phenylalaninamide], the Ki stood at 4.3 µM at cruzain (setting [1]), 10 µM at cathepsin L (setting [2]) and 48 µM on cathepsin B (setting [3]).
For `O=C(N[C@@H](CCc1ccccc1)CCS(=O)(=O)c1ccccc1)[C@H](Cc1ccc(O)cc1)NC(=O)N1CCOCC1` [Mu--Tyr--HphγSO2 Ph, (S)-3-(4-morpholinecarbonyltyrosyl)-amino-5-phenyl-1-phenylsulfonylpentane], the Ki at cruzain turned out to be 20 µM; on cathepsin L (setting [2]) it was 2.3 µM.
Consider `O=C(Cc1ccccc1)N[C@@H](Cc1ccccc1)C(=O)N[C@@H](CCc1ccccc1)CCS(=O)(=O)c1ccccc1` [Phac--Phe--HphγSO2 Ph, N^2-phenylacetyl-N^1-[3-phenyl-1S-(2-phenylsulfonylethyl)propyl]-L-phenylalaninamide], for which the Ki is 1.8 µM at cruzain (setting [1]), 0.41 µM on cathepsin L (setting [2]) and greater than 10 µM at cathepsin B (setting [3]).
The like results for `O=C(O)CCC(=O)N[C@@H](Cc1ccc2ccccc2c1)C(=O)N[C@@H](CCc1ccccc1)CCS(=O)(=O)c1ccc2ccccc2c1` [Suc--Np2--HphγSO2 2Np] were, in that order, 0.23 µM, 0.11 µM and greater than 1000 µM.
On to `O=C(O)CCC(=O)N[C@@H](Cc1ccc2ccccc2c1)C(=O)N[C@@H](CCc1ccccc1)CCS(=O)(=O)c1ccccc1` [Suc--Np2--HphγSO2 Ph, 3-{2-naphthyl-1S-[3-phenyl-1S-(2-phenylsulfonylethyl)propylcarbamoyl]ethylcarbamoyl}propionic acid], for which the Ki on cruzain (setting [1]) was 0.78 µM; at cathepsin L (setting [2]), 2.3 µM; at cathepsin B (setting [3]), greater than 1000 µM.
Taken in the same sequence, the figures for `O=C(O)CCC(=O)N[C@@H](Cc1ccccc1)C(=O)N[C@@H](CCc1ccccc1)CCS(=O)(=O)c1ccccc1` [Suc--Phe--HphγSO2 Ph, 3-{2-phenyl-1S-[3-phenyl-1S-(2-phenylsulfonylethyl)propylcarbamoyl]ethylcarbamoyl}propionic acid] were 1.5 µM, 1 µM and greater than 1000 µM.
Taken in the same sequence, the figures for `O=C(CCNC(=O)OCc1ccccc1)N[C@@H](Cc1ccccc1)C(=O)N[C@@H](CCc1ccccc1)CCS(=O)(=O)c1ccccc1` [Z--β-Ala--Phe--HphγSO2 Ph, M-(N-benzyloxycarbonyl-β-alanyl)-N^1-[3-phenyl-1S-(2-phenylsulfonylethyl)propyl]-L-phenylalaninamide] were 0.54 µM, 0.79 µM and 52 µM.
Turning to `NCCC(=O)N[C@@H](Cc1ccccc1)C(=O)N[C@@H](CCc1ccccc1)CCS(=O)(=O)c1ccccc1` [β-Ala--Phe--HphγSO2 Ph, N^2-(β-alanyl)-N^1-[3-phenyl-1S-(2-phenylsulfonylethyl)propyl]-L-phenylalaninamide], the Ki on cruzain (setting [1]) and at cathepsin L (setting [2]) was 14 µM throughout.

Usually Ki stands for the dissociation constant of the complex between target and ligand, obtained from inhibition or displacement.
